The values that follow come from patent publication US20210024498A1, “TETRAHYDROPYRROLE COMPOUND, PREPARATION METHOD THEREFOR, PHARMACEUTICAL COMPOSITION CONTAINING SAME, AND USE THEREOF” (MEDICONNS (SHANGHAI) BIOPHARMACEUTICAL CO., LTD, priority 2017, published 2021).

pIC50: −log10 of the molar value.

For one test, the target named is DAT (Homo sapiens, UniProt Q01959). Description: DAT transporter assay (neurotransmitter transporter absorption assay). The format is cell-based. The method, then: (§1) Bioactivity Test • I. D2 receptor affinity assay: The affinity of the compound to D2 receptor was determined by radioligand competition assay, and the cloned D2 receptor was expressed in HEK293 cell line. • II. D2 receptor function assay: The ability of the compound to antagonize the D2 receptor was determined using a calcium mobilization assay (FLIPR). • III. DAT receptor function assay: The ability of the compound to inhibit DAT was determined by neurotransmitter transporter absorption assay.
• HBSS1×, REPES 20 mM, BSA 0.1%.
• Lyophilized fluorescent dye 1 vial, Assay buffer 10 mL.
• BTCP—hydrochloride (Sigma)
• i) The medium was preheated in 37° C. water bath in advance for more than 30 minutes for later use. • j) The preheated medium was taken out, disinfected with 75% alcohol, and put into a biosafety cabinet. • k) The cultured cells were taken out from the […], and the medium was removed by a vacuum pump. 1× DPBS was added, incubated for a moment, and then removed by a vacuum pump. Appropriate amount of 0.05% trypsin-EDTA was added for cell digestion. The digestion was terminated by 10% FBS medium, and the cells were pipetted and dispersed. • l) The dispersed cells were transferred into a 50 mL centrifuge tube with a pipette.
• a) The reference compound was diluted in a ratio of 1:3 to 10 concentration gradients with the detection buffer containing 0.1% BSA, with the highest concentration being 2 μM. The compound to be tested was diluted to 20 uM with the detection buffer containing 0.1% BSA. • b) A centrifuge (750 rpm, 15 s) was used to spin off the culture solution in the cell culture plate, and the compound solution in step 1 was transferred to the cell culture plate (25 uL/well). • HC (High control): 25 μL of 0.1% BSA detection buffer containing 0.2% DMSO. • LC (Low control): 25 μL of solution containing 2 μM positive antagonist. • c) After centrifugation at 300 rpm for 15 seconds, the plate was incubated at 37° C. for 30 minutes. After the incubation with the compound was completed, a dye solution (25 μL/well) was added and incubated at 37° C. for 30 minutes.
Inhibitor % activity=100−(signal value per well−average value for LC well)/(average value for H well−average value for LC well)*100%.

The target in test [1] is T1, D2 receptor (Homo sapiens, UniProt P14416).
T1 construct: expressed in transfected cells; host or cells: HEK293
The experiment in a line: D2 receptor affinity assay (radioligand competition, 3H-7-OH-DPAT). The note with it: cloned D2 receptor expressed in HEK293 cell line; 3H-7-OH-DPAT 1 nM. The format is binding. As to the method:
as §1
• Experimental buffer: 50 mM Tris-HCl, pH 7.4, 5 mM MgCl2 • Washing buffer: 50 mM Tris-HCl pH 7.4, stored at 4° C. ready for use.
• The compound and positive control 7-OH-DPAT were serially diluted with DMSO, with the initial concentration of 2 mM and 4 times serial dilution, a total of 10 concentrations. 1 μL was transferred to the designated position of the 96-well plate. • 1 μL droperidol (final concentration 10 μM) was added to the positive control well. 1 μL DMSO was added to the negative control well.
• Receptor cell membrane was diluted to 10 μg/well with corresponding experimental buffer, with 100 μL cell membrane/well.
• 3H-7-OH-DPAT was diluted to 2 nM with corresponding experimental buffer, and the final concentration was 1 nM.
• After 100 μL of cell membrane and isotope were added, respectively, the reaction plate of the D2 receptor was incubated at room temperature for 1 hour. The GF/C filter plate was soaked in 0.3% PEI solution for more than half an hour. After the reaction was completed, the cell membrane was collected on the GF/C filter plate using the […], washed 4 times with cold washing buffer, and then dried in an oven at 50° C. for 1 hour. The dried GF/C filter plate was sealed at the bottom, 50 μL of scintillation fluid was added to each well and the well was sealed. Reads were obtained by MicroBeta and the data was analyzed using GraphPad Prism 5.0.
Ki=IC50/(1+isotope concentration/Kd)
(Displacement assays read how much labelled ligand stays bound in the presence of the test substance.)

Test [2] deals with T1, D2 receptor. The experiment in a line: D2 receptor function assay, calcium mobilization (FLIPR). As to conditions: HEK293, antagonism of D2 receptor. The format is cell-based. The method, then:
as §1
• Cell line: HEK293 • DMEM medium (Invitrogen) • Fetal bovine serum (FBS, Invitrogen) • L-Glutamine (Invitrogen) G418 (Invitrogen) • Blasticidin (Invitrogen)
• Fluo-4 Direct Kit (Invitrogen)
• 250 mM Probenecid solution was formulated: according to the kit instructions, 1 mL of FLIPR buffer salt solution was added to 77 mg probenecid just before needed. • 2× (8 μM) Fluo-4 Direct™ loading buffer was formulated: the number of tubes in Fluo-4 Direct™ needed for the experiment was melted in advance. Just before needed, 10 ml of FLIPR buffer salt solution and 0.2 mL of 250 mM Probenecid solution were added to each tube and vortexed in dark for more than 5 minutes.
• a) One tube of cells was taken from the liquid nitrogen tank and quickly thawed in 37° C. water bath. • b) The cell suspension was added to a centrifuge tube to which the preheated 20 ml medium was added in advance. • c) The centrifuge tube was centrifuged at 1000 rpm for 5 minutes at room temperature. • d) The supernatant was slowly decanted to avoid affecting the precipitated cells. • e) The cells were resuspended with 10-30 ml medium by pipetting the cells gently with a pipette. • f) The viability and number of cells were calculated with the cell counter. • g) The cells were diluted to 1×10^5 cells/ml with medium, and inoculated in the 384-well polylysine coated cell plate at 20 μL/well. • h) The plate was incubated in an incubator at 5% CO2, 37° C. for 16 to 20 hours.
10 μL of experimental buffer salt solution was added into the cell plate according to the set program, and the fluorescence signal was read. 10 μL of agonist reference compound was further added at a given concentration to the cell plate and the fluorescence signal was read. After reading, the data was derived by “Max-Min” and “Read 90 to Maximum Allowed” methods in the software and EC80 of the corresponding cell line was calculated, and the reference compound with a concentration of 6× EC80 was prepared. • f) The FLIPR instrument software was run. 10 μL of the compound to be tested and the reference compound at a given concentration were added into the cell plate according to the set program, and the fluorescence signal was read. 10 μL of reference compound agonist was further added at a concentration of 6× EC80 to the cell plate and the fluorescence signal was read. • g) Data Analysis • Calculation formula for data in the project:
Inhibitor % activity=100−(signal value per well−average value for high dose control group of inhibitor)/(average value for DMSO control group−average value for high dose control group of inhibitor)*100%.
A general note: A change in cytosolic calcium serves as a functional read-out for many receptors and channels.

For test [3], the system named is Amphetamine-induced high locomotor activity in mice. The experiment in a line: Amphetamine-induced high locomotor activity (LMA) in mice. The format is in vivo. Details: Distance resulting from the activity, First 30 min / Distance resulting from the activity, Last 30 min: unit not given here. The note with it: Amphetamine 1.0 mg/kg s.c.; 5 mg/kg p.o. (low dose group; olanzapine positive control); male ICR mice. The method, then:
The test compound MDC was a milky white powder and stored in a shade and cool place (formulated with 1% DMSO before use). […] Amphetamine, purchased from Sigma-Aldrich, was a white powder (formulated with normal saline before use). 1% DMSO was formulated by diluting pure DMSO (purity>99.5, purchased from Sigma) with normal saline.
(§2) Male ICR mice having weight 22±2 g were kept at 8 mice/cage with 12/12 hours light/dark cycle, temperature 23° C.±1° C., humidity 50% to 60%, free to eat and drink water.
The administration volume was 0.1 ml/10 g body weight; Amphetamine was freshly formulated with normal saline at a dose of 1.0 mg/kg and administered subcutaneously.
(§3) After one week of acclimation, mice were randomly divided into 6 groups according to their body weight: negative control group, model group, positive control group, and low dose group, medium dose group and high dose group for the test compound. 8-10 animals/group.
(§4) Group 1: Negative control group: Normal saline (s.c.)+1% DMSO (10.0 ml/kg, p.o.);
Group 2: Model group: Amphetamine (1.0 mg/kg, s.c.)+1% DMSO (10.0 ml/kg, p.o.);
Group 4: MDC low dose group: Amphetamine (1.0 mg/kg, s.c.)+MDC (5 mg/kg, p.o.);
Group 5: MDC medium dose group: Amphetamine (1.0 mg/kg, s.c.)+MDC (10 mg/kg, p.o.);
Group 6: MDC high dose group: Amphetamine (1.0 mg/kg, s.c.)+MDC (20 mg/kg, p.o.).
After administration, the animals were immediately placed in a locomotor activity box and recorded by Shanghai Jiliang animal video analysis system for 1 hour.
(§5) After the experiment, the activity of the animals within 1 hour was analyzed using the trajectory analysis software of Shanghai Jiliang animal video analysis system to obtain the total distance resulting from the activity.

Test [4] has as its system PCP-induced high locomotor activity in mice. Description: Phencyclidine (PCP) induced high locomotor activity (LMA) in mice. The test is classed as in vivo. The arrangement: Distance resulting from the activity, First 30 min / Distance resulting from the activity, Last 30 min: unit not given here. The note with it: PCP 5.0 mg/kg s.c.; 5 mg/kg p.o. (low dose group; olanzapine positive control); male ICR mice.
Excerpt: • 1. The effect of the compound on phencyclidine (PCP) induced high locomotor activity (LMA) in mice was detected.
The test compound MDC was milky white powder and stored in a shade and cool place (freshly formulated with 1% DMSO before use). […] Phencyclidine (PCP), purchased from Sigma Aldrich, was a grayish white powder (freshly formulated with normal saline before use). 1% DMSO was formulated by diluting pure DMSO (purity>99.5, purchased from Sigma-Aldrich) with normal saline.
as §2
The administration volume was 0.1 ml/10 g body weight; PCP was formulated with normal saline at a dose of 5 mg/kg.
The test compound MDC and olanzapine were administered by gavage and PCP was administered by subcutaneous injection.
as §3, §4
Group 2: Model group: PCP (5.0 mg/kg, s.c.)+1% DMSO (10.0 ml/kg, p.o.);
Group 4: MDC low dose group: PCP (5.0 mg/kg, s.c.)+MDC (5 mg/kg, p.o.);
Group 5: MDC medium dose group: PCP (5.0 mg/kg, s.c.)+MDC (10 mg/kg, p.o.);
Group 6: MDC high dose group: PCP (5.0 mg/kg, s.c.)+MDC (20 mg/kg, p.o.).
After oral administration, the animals were immediately placed in a locomotor activity box and recorded by Shanghai Jiliang ( ? ) animal video analysis system for 1 hour.
as §5

The target in test [5] is T1, D2 receptor. As to conditions: Bioorg. Med. Chem. 17 (2009) 1716-1723; cited from earlier work.
Another test deals with T2, D4 receptor (Homo sapiens, UniProt P21917).
T2 sequence (P21917 1-419): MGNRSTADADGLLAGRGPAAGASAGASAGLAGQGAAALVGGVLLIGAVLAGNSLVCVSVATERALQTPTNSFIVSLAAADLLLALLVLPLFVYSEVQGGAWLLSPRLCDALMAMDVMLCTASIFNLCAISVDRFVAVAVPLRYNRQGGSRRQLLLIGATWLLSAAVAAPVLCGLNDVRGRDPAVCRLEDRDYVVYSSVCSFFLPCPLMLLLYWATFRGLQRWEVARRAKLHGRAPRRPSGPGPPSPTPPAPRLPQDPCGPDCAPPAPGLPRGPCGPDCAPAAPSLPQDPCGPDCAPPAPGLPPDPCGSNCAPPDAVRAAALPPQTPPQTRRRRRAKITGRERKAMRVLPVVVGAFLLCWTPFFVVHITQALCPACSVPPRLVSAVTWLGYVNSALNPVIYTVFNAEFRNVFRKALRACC
As to conditions: Bioorg. Med. Chem. 17 (2009) 1716-1723; cited from earlier work.

DAT, sequence (Q01959 whole entry, species assumed): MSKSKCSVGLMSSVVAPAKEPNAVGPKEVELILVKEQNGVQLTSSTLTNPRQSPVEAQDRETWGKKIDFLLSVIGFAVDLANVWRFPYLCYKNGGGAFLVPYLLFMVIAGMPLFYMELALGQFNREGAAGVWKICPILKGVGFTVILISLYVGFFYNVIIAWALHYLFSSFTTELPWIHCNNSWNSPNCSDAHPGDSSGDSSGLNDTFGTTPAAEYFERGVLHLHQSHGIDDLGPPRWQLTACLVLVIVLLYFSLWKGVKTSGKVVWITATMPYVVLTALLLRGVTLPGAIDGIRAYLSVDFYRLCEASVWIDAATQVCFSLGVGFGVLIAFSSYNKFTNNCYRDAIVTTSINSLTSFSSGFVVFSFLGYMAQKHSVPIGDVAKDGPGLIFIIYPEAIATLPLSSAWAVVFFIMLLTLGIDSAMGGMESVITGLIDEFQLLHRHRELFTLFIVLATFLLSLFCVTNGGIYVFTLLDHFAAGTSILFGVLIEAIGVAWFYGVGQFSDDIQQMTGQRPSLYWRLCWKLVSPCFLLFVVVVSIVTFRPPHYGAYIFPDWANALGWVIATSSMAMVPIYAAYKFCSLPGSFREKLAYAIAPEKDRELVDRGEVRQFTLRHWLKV
T1 sequence (P14416 whole entry): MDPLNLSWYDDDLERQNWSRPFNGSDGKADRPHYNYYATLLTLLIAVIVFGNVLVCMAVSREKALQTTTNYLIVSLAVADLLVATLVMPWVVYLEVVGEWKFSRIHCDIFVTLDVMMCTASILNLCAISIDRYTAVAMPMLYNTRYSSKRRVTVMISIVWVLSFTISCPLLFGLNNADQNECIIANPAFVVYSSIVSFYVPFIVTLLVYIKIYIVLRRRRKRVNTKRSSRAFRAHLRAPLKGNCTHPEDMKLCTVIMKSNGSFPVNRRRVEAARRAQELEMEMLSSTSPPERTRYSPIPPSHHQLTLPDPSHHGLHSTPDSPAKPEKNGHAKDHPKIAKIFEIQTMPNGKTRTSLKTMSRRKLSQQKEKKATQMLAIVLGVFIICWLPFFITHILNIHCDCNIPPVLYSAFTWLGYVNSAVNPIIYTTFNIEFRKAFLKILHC

One may read the pIC50 as the negative decadic logarithm of the IC50, by convention in mol/L. Regarding `Oc1cc(C2CCN(Cc3c[nH]c4ccccc34)C2)ccc1F` (stereo not shown) [MDC-161502-031], the pIC50 on DAT was 7.55; on D2 receptor [1], 7.65; on D2 receptor [2], 7.84.

Turning to `Oc1cccc(C2CCN(Cc3n[nH]c4ccccc34)C2)c1` (stereo not shown) [MDC-161502-033], the figures for the pIC50 against DAT, on D2 receptor [1] and on D2 receptor [2] were 6.96, 8.17 and 8.64, respectively.

On to `Oc1cccc(C2CCN(Cc3c[nH]c4ncccc34)C2)c1` (stereo not shown) [MDC-161502-034], for which the pIC50 on DAT is 6.16; at D2 receptor [1], 8.69; at D2 receptor [2], 8.70.

On to `c1ccc2c(CN3CCC(c4ccc5cn[nH]c5c4)C3)c[nH]c2c1` (stereo not shown) [MDC-161502-036], for which the pIC50 on DAT is 6.07; at D2 receptor [1], 6.53; on D2 receptor [2], 6.33.

Consider `c1ccc2c(CN3CCC(c4ccc5nc[nH]c5c4)C3)c[nH]c2c1` (stereo not shown) [MDC-161502-037], for which the pIC50 at DAT is 6.72; at D2 receptor [1], 6.34; at D2 receptor [2] it was 6.57.

On to `c1ccc2c(CN3CCC(c4cccc5[nH]ncc45)C3)c[nH]c2c1` (stereo not shown) [MDC-161502-038], for which the pIC50 against DAT is 7.06; at D2 receptor [1], 7.99; on D2 receptor [2], 8.21.

On DAT, `c1ccc2c(CN3CCC(c4ccc5[nH]nnc5c4)C3)c[nH]c2c1` (stereo not shown) [MDC-161502-040] showed a pIC50 of 7.28.

In the case of `Cc1cc2c(s1)Nc1ccccc1N=C2N1CCN(C)CC1` [Olanzapine, olanzapine, reference compound], in test [3], the “Distance resulting from the activity, First 30 min” value is reported as 227653 and the “Distance resulting from the activity, Last 30 min” value is recorded as 158673. Also, in test [4], the “Distance resulting from the activity, First 30 min” value turned out to be 208491 and the “Distance resulting from the activity, Last 30 min” value was 80518.

As to `OC1(c2ccc(Cl)cc2)CCN(Cc2c[nH]c3ccccc23)C1` (stereo not shown) [compound 4], on D2 receptor [5], the “Antagonism to D2 receptor (in words)” value is reported as “substantially no antagonism to D2 receptor”. Also, at D4 receptor, the “D4 receptor antagonism (in words)” value is “moderate intensity of D4 receptor antagonism”.
